Data published in the kinase profiling compilation of Christmann-Franck et al. (2016).

Key:
Assay in all cases: radiometric filter-binding kinase assay, Kinase HotSpot
Conditions in all cases: compound 0.5 µM; ATP 10 µM
[1] = target: MET (human) (UniProt P08581)
[2] = target: PAK6 (human) (UniProt Q9NQU5)
[3] = target: FGR (human) (UniProt P09769)
[4] = target: HIPK4 (human) (UniProt Q8NE63)
[5] = target: TSSK2 (human) (UniProt Q96PF2)
[6] = target: PRKCD (human) (UniProt Q05655)
[7] = target: CSNK2A1 (human) (UniProt P68400)
[8] = target: HIPK2 (human) (UniProt Q9H2X6)
[9] = target: ACVR1 (human) (UniProt Q04771)
[10] = target: MST1R (human) (UniProt Q04912)
[11] = target: IRAK1 (human) (UniProt P51617)
[12] = target: CSK (human) (UniProt P41240)
[13] = target: NEK9 (human) (UniProt Q8TD19)
[14] = target: CDK3 CCNE1 (human) (UniProt Q00526+P24864)
[15] = target: TSSK1B (human) (UniProt Q9BXA7)
[16] = target: CLK1 (human) (UniProt P49759)
[17] = target: BRAF (human) (UniProt P15056)
[18] = target: INSRR (human) (UniProt P14616)
[19] = target: KIT (human) (UniProt P10721)
[20] = target: HIPK3 (human) (UniProt Q9H422)
[21] = target: FGFR1 (human) (UniProt P11362)
[22] = target: SGK3 (human) (UniProt Q96BR1)
[23] = target: LTK (human) (UniProt P29376)
[24] = target: CDC42BPB (human) (UniProt Q9Y5S2)
[25] = target: AURKC (human) (UniProt Q9UQB9)
[26] = target: RPS6KA3 KD1 KD2 (human) (UniProt P51812)
[27] = target: CAMK4 (human) (UniProt Q16566)
[28] = target: NEK1 (human) (UniProt Q96PY6)
[29] = target: MAPK8 (human) (UniProt P45983)
[30] = target: TXK (human) (UniProt P42681)
[31] = target: TAOK2 (human) (UniProt Q9UL54)
[32] = target: PHKG1 (human) (UniProt Q16816)
[33] = target: EPHA3 (human) (UniProt P29320)
[34] = target: PLK1 (human) (UniProt P53350)
[35] = target: DAPK3 (human) (UniProt O43293)

Sequence of HIPK2 (human) (Q9H2X6 whole entry, looked up): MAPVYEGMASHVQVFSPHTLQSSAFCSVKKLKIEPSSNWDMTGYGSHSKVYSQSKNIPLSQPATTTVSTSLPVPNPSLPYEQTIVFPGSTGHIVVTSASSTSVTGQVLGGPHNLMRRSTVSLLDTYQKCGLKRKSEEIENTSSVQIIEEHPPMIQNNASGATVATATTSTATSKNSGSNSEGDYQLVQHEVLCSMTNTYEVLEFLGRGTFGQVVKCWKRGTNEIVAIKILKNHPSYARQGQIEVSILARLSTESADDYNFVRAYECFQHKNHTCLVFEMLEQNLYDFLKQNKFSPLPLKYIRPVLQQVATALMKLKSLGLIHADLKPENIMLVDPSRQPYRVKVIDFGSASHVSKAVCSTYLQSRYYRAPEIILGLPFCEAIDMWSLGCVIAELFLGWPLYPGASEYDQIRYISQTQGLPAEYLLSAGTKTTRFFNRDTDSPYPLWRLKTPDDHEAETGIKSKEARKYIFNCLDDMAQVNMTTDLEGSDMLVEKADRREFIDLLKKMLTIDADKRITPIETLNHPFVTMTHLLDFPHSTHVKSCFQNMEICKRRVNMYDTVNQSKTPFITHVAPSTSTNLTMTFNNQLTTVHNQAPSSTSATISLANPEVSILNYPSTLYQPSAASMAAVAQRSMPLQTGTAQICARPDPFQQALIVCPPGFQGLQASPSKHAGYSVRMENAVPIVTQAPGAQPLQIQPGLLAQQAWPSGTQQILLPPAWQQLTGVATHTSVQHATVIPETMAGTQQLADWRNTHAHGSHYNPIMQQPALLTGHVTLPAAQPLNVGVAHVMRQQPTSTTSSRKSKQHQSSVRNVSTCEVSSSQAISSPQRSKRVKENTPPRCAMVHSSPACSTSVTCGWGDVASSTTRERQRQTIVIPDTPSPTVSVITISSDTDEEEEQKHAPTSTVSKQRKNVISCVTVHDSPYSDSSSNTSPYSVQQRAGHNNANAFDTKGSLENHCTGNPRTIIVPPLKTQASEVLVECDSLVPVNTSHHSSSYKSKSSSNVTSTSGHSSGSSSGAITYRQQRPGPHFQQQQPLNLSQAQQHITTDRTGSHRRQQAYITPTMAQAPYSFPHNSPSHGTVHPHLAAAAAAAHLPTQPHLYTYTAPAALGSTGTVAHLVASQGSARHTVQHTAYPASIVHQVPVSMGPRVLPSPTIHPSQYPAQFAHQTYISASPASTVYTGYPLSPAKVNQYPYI
Sequence of RPS6KA3 KD1 KD2 (human) (P51812 whole entry, looked up): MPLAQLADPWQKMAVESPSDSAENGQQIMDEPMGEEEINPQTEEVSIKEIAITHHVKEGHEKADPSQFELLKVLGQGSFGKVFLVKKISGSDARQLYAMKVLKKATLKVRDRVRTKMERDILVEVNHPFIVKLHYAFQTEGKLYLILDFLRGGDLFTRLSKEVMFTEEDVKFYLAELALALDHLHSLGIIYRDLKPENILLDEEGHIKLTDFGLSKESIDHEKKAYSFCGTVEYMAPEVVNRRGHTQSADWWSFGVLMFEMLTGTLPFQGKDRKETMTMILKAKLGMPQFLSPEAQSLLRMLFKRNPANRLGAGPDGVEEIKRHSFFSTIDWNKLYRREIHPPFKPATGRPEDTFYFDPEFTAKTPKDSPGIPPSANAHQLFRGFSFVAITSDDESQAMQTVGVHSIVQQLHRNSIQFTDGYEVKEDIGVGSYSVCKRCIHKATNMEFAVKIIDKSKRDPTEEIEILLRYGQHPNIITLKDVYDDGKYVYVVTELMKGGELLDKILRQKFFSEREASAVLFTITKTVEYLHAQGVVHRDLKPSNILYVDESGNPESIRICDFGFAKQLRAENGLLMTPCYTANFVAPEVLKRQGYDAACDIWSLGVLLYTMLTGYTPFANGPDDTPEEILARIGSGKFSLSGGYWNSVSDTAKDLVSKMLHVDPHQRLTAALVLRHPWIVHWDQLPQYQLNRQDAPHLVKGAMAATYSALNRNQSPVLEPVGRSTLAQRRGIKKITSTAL
Sequence of HIPK4 (human) (Q8NE63 whole entry, looked up): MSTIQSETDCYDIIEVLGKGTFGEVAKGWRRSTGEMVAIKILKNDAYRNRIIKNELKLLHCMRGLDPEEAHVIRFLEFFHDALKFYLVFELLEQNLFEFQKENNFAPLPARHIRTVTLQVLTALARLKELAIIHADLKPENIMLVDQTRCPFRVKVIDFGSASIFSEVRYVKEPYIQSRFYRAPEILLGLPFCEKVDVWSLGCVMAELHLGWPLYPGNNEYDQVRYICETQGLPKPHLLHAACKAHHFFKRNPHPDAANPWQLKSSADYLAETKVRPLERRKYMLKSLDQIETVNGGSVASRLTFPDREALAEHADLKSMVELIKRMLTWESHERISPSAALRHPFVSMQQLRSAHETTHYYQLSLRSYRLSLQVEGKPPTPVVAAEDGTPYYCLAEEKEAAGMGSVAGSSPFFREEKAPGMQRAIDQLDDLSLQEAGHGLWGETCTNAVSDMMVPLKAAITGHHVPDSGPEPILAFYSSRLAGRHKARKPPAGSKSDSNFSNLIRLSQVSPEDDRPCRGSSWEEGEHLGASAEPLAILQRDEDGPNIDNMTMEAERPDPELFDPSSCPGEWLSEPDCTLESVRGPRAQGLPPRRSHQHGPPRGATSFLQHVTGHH
Sequence of TXK (human) (P42681 whole entry, looked up): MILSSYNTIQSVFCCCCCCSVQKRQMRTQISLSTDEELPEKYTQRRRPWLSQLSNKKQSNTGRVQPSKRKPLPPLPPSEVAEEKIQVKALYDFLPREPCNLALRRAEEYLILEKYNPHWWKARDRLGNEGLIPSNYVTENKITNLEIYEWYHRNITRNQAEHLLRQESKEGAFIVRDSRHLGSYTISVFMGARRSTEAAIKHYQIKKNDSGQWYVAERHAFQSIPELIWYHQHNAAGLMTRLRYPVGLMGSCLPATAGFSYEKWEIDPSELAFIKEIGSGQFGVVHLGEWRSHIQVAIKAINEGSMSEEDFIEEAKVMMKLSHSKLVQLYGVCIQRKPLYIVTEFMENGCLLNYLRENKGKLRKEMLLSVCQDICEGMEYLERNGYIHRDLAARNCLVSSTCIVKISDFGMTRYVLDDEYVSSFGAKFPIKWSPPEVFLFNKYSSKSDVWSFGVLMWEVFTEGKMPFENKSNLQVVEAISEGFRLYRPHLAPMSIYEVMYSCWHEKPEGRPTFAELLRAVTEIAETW
Sequence of NEK1 (human) (Q96PY6 whole entry, looked up): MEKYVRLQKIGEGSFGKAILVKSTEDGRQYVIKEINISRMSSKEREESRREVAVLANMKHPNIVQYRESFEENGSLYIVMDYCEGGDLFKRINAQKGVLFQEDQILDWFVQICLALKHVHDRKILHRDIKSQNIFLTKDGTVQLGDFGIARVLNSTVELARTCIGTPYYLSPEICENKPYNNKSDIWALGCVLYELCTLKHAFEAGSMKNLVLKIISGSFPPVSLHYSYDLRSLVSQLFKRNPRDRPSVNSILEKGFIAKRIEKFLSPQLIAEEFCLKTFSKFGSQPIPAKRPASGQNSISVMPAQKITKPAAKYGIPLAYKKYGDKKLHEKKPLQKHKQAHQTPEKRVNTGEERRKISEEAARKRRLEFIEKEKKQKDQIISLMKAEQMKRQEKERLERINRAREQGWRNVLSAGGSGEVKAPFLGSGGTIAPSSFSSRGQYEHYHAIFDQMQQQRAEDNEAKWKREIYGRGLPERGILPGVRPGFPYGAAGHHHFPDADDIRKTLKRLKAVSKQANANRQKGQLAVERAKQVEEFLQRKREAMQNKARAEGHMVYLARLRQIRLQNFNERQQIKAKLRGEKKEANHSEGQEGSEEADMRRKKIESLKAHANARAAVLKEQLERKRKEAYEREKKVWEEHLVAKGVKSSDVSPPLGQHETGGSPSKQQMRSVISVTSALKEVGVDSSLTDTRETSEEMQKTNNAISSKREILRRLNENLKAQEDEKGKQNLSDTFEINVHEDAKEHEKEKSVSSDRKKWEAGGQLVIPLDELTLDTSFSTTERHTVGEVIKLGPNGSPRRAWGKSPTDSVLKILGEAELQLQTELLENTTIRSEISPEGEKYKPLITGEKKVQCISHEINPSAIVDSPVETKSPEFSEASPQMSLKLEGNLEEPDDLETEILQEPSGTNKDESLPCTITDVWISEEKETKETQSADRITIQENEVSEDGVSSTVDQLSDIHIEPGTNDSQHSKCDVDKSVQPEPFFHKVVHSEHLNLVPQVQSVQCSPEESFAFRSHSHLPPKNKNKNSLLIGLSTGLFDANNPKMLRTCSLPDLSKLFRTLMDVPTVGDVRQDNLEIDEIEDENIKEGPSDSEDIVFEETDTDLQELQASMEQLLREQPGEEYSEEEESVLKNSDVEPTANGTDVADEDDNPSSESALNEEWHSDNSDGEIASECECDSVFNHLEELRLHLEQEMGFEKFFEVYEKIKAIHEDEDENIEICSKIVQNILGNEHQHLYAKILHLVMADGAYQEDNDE
Sequence of CSK (human) (P41240 whole entry, looked up): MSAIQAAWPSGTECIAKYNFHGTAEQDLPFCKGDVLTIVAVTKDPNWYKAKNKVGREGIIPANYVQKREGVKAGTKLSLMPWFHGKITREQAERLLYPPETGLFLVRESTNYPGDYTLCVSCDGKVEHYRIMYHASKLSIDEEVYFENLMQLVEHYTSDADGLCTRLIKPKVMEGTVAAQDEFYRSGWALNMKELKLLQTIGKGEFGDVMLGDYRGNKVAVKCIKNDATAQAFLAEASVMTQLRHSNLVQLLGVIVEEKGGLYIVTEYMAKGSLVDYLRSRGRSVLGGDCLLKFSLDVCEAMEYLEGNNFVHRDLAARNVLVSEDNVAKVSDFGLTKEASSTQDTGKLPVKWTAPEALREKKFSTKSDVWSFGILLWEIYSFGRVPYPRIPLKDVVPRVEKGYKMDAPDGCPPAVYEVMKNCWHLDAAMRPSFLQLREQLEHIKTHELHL

| Compound | residual activity [1] [%] | residual activity [2] [%] | residual activity [3] [%] | residual activity [4] [%] | residual activity [5] [%] | residual activity [6] [%] | residual activity [7] [%] | residual activity [8] [%] | residual activity [9] [%] | residual activity [10] [%] | residual activity [11] [%] | residual activity [12] [%] | residual activity [13] [%] | residual activity [14] [%] | residual activity [15] [%] | residual activity [16] [%] | residual activity [17] [%] | residual activity [18] [%] | residual activity [19] [%] | residual activity [20] [%] | other results |
| --- | --- | --- | --- | --- | --- | --- | --- | --- | --- | --- | --- | --- | --- | --- | --- | --- | --- | --- | --- | --- | --- |
| Cn1sc(=O)n(Cc2ccccc2)c1=O | 64.2 | 93.4 | 101 | 98.2 | 100 | 94.1 | 95.4 | 99.6 | 102 | 101 | 116 | 101 | 98.2 | 78.1 | 94.4 | 112 | 98.1 | 99.3 | 101 | 94.9 | residual activity [21]: 95.6%; residual activity [22]: 102%; residual activity [23]: 101%; residual activity [24]: 96.4%; residual activity [25]: 98.8%; residual activity [26]: 97.5%; residual activity [27]: 93.2%; residual activity [28]: 102%; residual activity [29]: 85.5%; residual activity [30]: 99.8%; residual activity [31]: 91%; residual activity [32]: 102%; residual activity [33]: 107%; residual activity [34]: 97.2%; residual activity [35]: 103% |
| CC(C)[C@H](CO)Nc1nc(Nc2cc(N)cc(Cl)c2)c2ncn(C(C)C)c2n1 | 109 | 57.3 | 15 | 96.4 | 102 | 87.6 | 99.3 | 94.3 | 99.4 | 122 | 97.1 | 79.3 | 69.4 | 31.9 | 91.3 | 51.9 | 97.5 | 70.8 | 86.2 | 99.4 | residual activity [21]: 76.7%; residual activity [22]: 99.9%; residual activity [23]: 103%; residual activity [24]: 98.4%; residual activity [25]: 91.9%; residual activity [26]: 54.1%; residual activity [27]: 97.4%; residual activity [28]: 81.5%; residual activity [29]: 93.4%; residual activity [30]: 42.5%; residual activity [31]: 82.2%; residual activity [32]: 81.1%; residual activity [33]: 86.6%; residual activity [34]: 54.9%; residual activity [35]: 96.7% |
| CCn1cnc2c(Nc3cccc(Cl)c3)nc(N[C@@H]3CCCC[C@@H]3N)nc21 | 102 | 96.7 | 45.8 | 88.4 | 109 | 91.2 | 84.2 | 94 | 92.7 | 99.6 | 81.7 | 85.4 | 95.4 | 49.7 | 87.4 | 89.3 | 93 | 90.7 | 101 | 102 | residual activity [21]: 85.7%; residual activity [22]: 94.3%; residual activity [23]: 93.8%; residual activity [24]: 97.7%; residual activity [25]: 94.5%; residual activity [26]: 64.1%; residual activity [27]: 103%; residual activity [28]: 95%; residual activity [29]: 97.6%; residual activity [30]: 69.1%; residual activity [31]: 101%; residual activity [32]: 62.8%; residual activity [33]: 85.7%; residual activity [34]: 86%; residual activity [35]: 105% |
| Nc1nnc2[nH]c3ccccc3nc1-2 | 90.1 | 96.3 | 96.3 | 95.8 | 110 | 98.3 | 87.6 | 95.9 | 94.3 | 105 | 88.9 | 100 | 98.5 | 93.1 | 95.4 | 99.2 | 102 | 89.3 | 100 | 97.4 | residual activity [21]: 93.9%; residual activity [22]: 96.6%; residual activity [23]: 89.4%; residual activity [24]: 100%; residual activity [25]: 90.8%; residual activity [26]: 88%; residual activity [27]: 104%; residual activity [28]: 91.7%; residual activity [29]: 89.6%; residual activity [30]: 97.6%; residual activity [31]: 103%; residual activity [32]: 86.9%; residual activity [33]: 95.2%; residual activity [34]: 94.5%; residual activity [35]: 98.2% |
| COc1ccc(OC)c2c(=S)c3ccccc3[nH]c12 | 99.2 | 112 | 90.8 | 97.3 | 108 | 103 | 100 | 98.3 | 99.2 | 87.9 | 91.1 | 103 | 95.8 | 87.7 | 114 | 98.4 | 88.5 | 88.7 | 78.6 | 101 | residual activity [21]: 89.6%; residual activity [22]: 90.7%; residual activity [23]: 84.5%; residual activity [24]: 106%; residual activity [25]: 88.2%; residual activity [26]: 109%; residual activity [27]: 101%; residual activity [28]: 102%; residual activity [29]: 96.8%; residual activity [30]: 101%; residual activity [31]: 100%; residual activity [32]: 83%; residual activity [33]: 94.9%; residual activity [34]: 93.6%; residual activity [35]: 112% |
